This is an account of results in US20240150377A1, “MODULATORS OF CYSTIC FIBROSIS TRANSMEMBRANE CONDUCTANCE REGULATOR” (VERTEX PHARMACEUTICALS INCORPORATED, priority 2020, published 2024).

pEC50: −log10 of the molar value. Like-named read-outs stand apart in the source and are kept apart here.

For data set [1] the following is noted: amide bond, 13-membered ring, DMF.
A further data set concerns the target CFTR (Homo sapiens, UniProt P13569). The data set is described as follows: Membrane potential dye, Enteroid Assay A. The following applies: for Ent. A Max Activity: chloride transport as % of triple combination control (Enteroid Assay A); for pEC50: human enteroid cells, 18-24 hours, acute 10 μM forskolin and 300 nM ivacaftor, read-out: Ent. A EC50. The data set is classed as cell-based. In a few lines:
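Human intestinal enteroids incubated 18-24 h at 37 °C with test compound, then loaded with 20 μM methyl oxonol (with CaCC inhibitors). Chloride transport triggered in chloride-free buffer with 10 μM forskolin, 100 μM IBMX, 300 nM Compound III; fluorescence read 15 min, expressed as % of a triple-combination corrector/potentiator control.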

Sequence of CFTR (P13569 with tags, fused parts or gaps DEL508-508): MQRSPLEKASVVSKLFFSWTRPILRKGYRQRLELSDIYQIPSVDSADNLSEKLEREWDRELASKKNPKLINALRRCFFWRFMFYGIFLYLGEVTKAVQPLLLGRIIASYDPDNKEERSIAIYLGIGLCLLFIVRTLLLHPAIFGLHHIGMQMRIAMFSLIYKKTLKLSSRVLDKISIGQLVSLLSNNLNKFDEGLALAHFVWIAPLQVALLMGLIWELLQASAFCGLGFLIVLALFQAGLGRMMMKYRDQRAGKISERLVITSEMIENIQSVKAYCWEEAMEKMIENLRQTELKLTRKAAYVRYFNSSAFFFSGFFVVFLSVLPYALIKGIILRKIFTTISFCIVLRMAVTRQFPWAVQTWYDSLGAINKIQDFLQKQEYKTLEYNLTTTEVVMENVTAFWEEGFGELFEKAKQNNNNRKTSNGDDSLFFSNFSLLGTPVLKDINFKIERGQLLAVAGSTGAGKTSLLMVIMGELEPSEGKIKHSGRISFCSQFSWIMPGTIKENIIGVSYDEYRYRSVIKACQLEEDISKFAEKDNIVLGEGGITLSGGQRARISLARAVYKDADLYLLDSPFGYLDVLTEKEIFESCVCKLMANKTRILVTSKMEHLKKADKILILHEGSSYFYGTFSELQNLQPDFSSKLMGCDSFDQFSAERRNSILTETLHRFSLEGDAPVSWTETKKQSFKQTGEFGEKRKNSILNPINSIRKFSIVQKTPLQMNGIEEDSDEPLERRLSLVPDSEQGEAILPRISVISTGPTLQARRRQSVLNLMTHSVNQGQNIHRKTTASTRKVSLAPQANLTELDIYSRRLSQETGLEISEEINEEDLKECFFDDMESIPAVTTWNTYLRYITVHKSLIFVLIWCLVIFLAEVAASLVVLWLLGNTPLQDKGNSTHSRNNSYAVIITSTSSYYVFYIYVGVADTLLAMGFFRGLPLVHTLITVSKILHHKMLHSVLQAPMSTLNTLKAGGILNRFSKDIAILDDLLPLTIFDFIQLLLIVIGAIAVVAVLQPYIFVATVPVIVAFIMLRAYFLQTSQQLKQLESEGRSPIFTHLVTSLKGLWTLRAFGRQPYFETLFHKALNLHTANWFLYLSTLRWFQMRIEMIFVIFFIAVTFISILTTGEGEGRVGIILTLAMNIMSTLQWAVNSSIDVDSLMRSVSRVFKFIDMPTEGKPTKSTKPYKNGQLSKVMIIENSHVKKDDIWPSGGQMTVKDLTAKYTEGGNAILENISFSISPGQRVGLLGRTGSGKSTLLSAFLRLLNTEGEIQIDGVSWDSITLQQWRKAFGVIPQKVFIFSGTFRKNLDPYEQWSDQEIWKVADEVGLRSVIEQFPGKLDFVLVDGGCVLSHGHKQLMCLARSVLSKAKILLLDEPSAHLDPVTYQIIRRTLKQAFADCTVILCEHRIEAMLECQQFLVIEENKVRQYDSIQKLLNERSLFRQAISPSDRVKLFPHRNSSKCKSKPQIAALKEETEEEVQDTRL

Compound `Cc1cccc(C)c1-c1cc2nc(n1)NS(=O)(=O)c1cccc(c1)C(=O)N(C)CC(c1ccc(C(C)(C)C)cn1)O2` (stereo not drawn) [Compound 101, 10-(5-tert-butyl-2-pyridyl)-6-(2,6-dimethylphenyl)-12-methyl-2,2-dioxo-9-oxa-2λ^6-thia-3,5,12,19-tetrazatricyclo[12.3.1.14,8]nonadeca-1(18),4(19),5,7,14,16-hexaen-13-one] returned a ring closure, yield after HPLC in data set [1] (from CNCC(Oc1cc(-c2c(C)cccc2C)nc(NS(=O)(=O)c2cccc(C(=O)O)c2)n1)c1ccc(C(C)(C)C)cn1, HATU/DIEA, 10.5 mM, 25.0 °C, 0.083 h, 2 steps) of 55%. Further, on CFTR (Table 6), the “Ent. A Max Activity” value is “+++ (+++ is >60%)” and the pEC50 – broadly, the EC50 on a negative log10 scale, so that one unit is a factor of ten – was over 6.00.

Turning to `Cc1cccc(C)c1-c1cc2nc(n1)NS(=O)(=O)c1cccc(c1)C(=O)N(C)CC(c1ccc(C(C)(C)C)cc1)O2` (racemic) [Compound 10, 10-(4-tert-butylphenyl)-6-(2,6-dimethylphenyl)-12-methyl-2,2-dioxo-9-oxa-2λ^6-thia-3,5,12,19-tetrazatricyclo[12.3.1.14,8]nonadeca-1(18),4(19),5,7,14,16-hexaen-13-one], the ring closure, yield after HPLC in data set [1] (from CNCC(Oc1cc(-c2c(C)cccc2C)nc(NS(=O)(=O)c2cccc(C(=O)O)c2)n1)c1ccc(C(C)(C)C)cc1, HATU/DIEA, 15.4 mM, 25.0 °C, 0.25 h, 2 steps) is 19%. Besides, on CFTR (Table 6), the “Ent. A Max Activity” value was “+++ (+++ is >60%)” and the pEC50 is over 6.00.

`Cc1cccc(C)c1-c1cc2nc(n1)NS(=O)(=O)c1cccc(c1)C(=O)N(CCC1CCOCC1)C(CCC1(C(F)(F)F)CC1)CO2` (stereo not drawn) [Compound 74, 6-(2,6-dimethylphenyl)-2,2-dioxo-12-(2-tetrahydropyran-4-ylethyl)-11-[2-[1-(trifluoromethyl)cyclopropyl]ethyl]-9-oxa-2λ^6-thia-3,5,12,19-tetrazatricyclo[12.3.1.14,8]nonadeca-1(18),4(19),5,7,14,16-hexaen-13-one] came in with a ring closure, yield after HPLC in data set [1] (from Cc1cccc(C)c1-c1cc(OCC(CCC2(C(F)(F)F)CC2)NCCC2CCOCC2)nc(NS(=O)(=O)c2cccc(C(=O)O)c2)n1, HATU/DIEA, 24.1 mM, 16.0 h) of 23%. Besides, at CFTR (Table 6), the “Ent. A Max Activity” value is “+++ (+++ is >60%)” and the pEC50 was over 6.00.

In data set [1] (from CNCC(Oc1cc(-c2c(C)cccc2C)nc(NS(=O)(=O)c2cccc(C(=O)O)c2)n1)c1cccc(C(C)(C)C)c1, HATU/DIEA, 32.6 mM, 25.0 °C, 1.0 h, 2 steps), `Cc1cccc(C)c1-c1cc2nc(n1)NS(=O)(=O)c1cccc(c1)C(=O)N(C)CC(c1cccc(C(C)(C)C)c1)O2` (racemic) [Compound 16, 10-(3-tert-butylphenyl)-6-(2,6-dimethylphenyl)-12-methyl-2,2-dioxo-9-oxa-2λ^6-thia-3,5,12,19-tetrazatricyclo[12.3.1.14,8]nonadeca-1(18),4(19),5,7,14,16-hexaen-13-one] gave a ring closure, yield after HPLC of 51%. In addition, on CFTR (Table 7), the “Ent. A Max Activity” value is listed as “++ (++ is 30-60%)” and the pEC50 is over 6.00.

On to `Cc1cccc(C)c1-c1cc2nc(n1)NS(=O)(=O)c1cccc(c1)C(=O)N(CCC(C)(C)C)CC(c1ccc(C(C)(C)C)cc1)O2` (stereo not drawn) [Compound 14, 10-(4-tert-butylphenyl)-12-(3,3-dimethylbutyl)-6-(2,6-dimethylphenyl)-2,2-dioxo-9-oxa-2λ^6-thia-3,5,12,19-tetrazatricyclo[12.3.1.14,8]nonadeca-1(18),4(19),5,7,14,16-hexaen-13-one], for which the ring closure, yield after HPLC in data set [1] (from Cc1cccc(C)c1-c1cc(OC(CNCCC(C)(C)C)c2ccc(C(C)(C)C)cc2)nc(NS(=O)(=O)c2cccc(C(=O)O)c2)n1, HATU/TEA, 0.42 h, 2 steps) was determined as 6%. Moreover, on CFTR (Table 6), the “Ent. A Max Activity” value is recorded as “++ (++ is 30-60%)” and the pEC50 was over 6.00.

As to `Cc1cccc(C)c1-c1cc2nc(n1)NS(=O)(=O)c1cccc(c1)C(=O)N(CCC(C)(C)C)[C@H](CC(C)(C)C)CO2` [Compound 138, (11R)-12-(3,3-Dimethylbutyl)-6-(2,6-dimethylphenyl)-11-(2,2-dimethylpropyl)-2,2-dioxo-9-oxa-2λ^6-thia-3,5,12,19-tetrazatricyclo[12.3.1.14,8]nonadeca-1(18),4(19),5,7,14,16-hexaen-13-one], the ring closure, yield after HPLC in data set [1] (from Cc1cccc(C)c1-c1cc(OC[C@@H](CC(C)(C)C)NCCC(C)(C)C)nc(NS(=O)(=O)c2cccc(C(=O)O)c2)n1, HATU/DIEA, 8.4 mM, 2.0 h) was 39%. For the same compound, on CFTR (Table 6), the “Ent. A Max Activity” value was “+++ (+++ is >60%)” and the pEC50 was over 6.00.
